Key:
CCR7 = CCR7 surface expression on BMDCs; type: cell-based, mouse
Method: FIG. 14 graphically illustrates that indole upregulates CCR7 expression in DCs. Flow cytometric analysis were performed on BMDCs cultured from day 3 in the presence of indole (1 mM), RA (1 uM), or DMF control and either surface stained for CCR7 expression directly or treated with LPS (1 ug/ml) for 24 hours prior to CCR7 staining.
Encountering maturation-inducing stimuli induces an upregulation of the chemokine receptor CCR7 in DCs. This shift promotes DC migration from peripheral tissues to the lymph nodes to present captured antigen. CCR7 expression facilitates this migration by rendering DCs sensitive to the chemoattractants, CCL19 and CCL21, which direct DCs to T cell areas of lymphoid tissues. […] Exposure to LPS is a DC-activating signal known to upregulate CCR7 expression in order to prime DCs for lymph node entry. Consistent with the literature, exposure to LPS for 24 hours further induced CCR7 expression in our BMDC cultures overall. Here, indole-conditioned DCs once again expressed a higher level of CCR7 expression compared to controls by over 3-fold in magnitude (FIG. 14).

[1] = Pinero-Fernandez et al. 2011; cited from earlier work
Stat3 [2] = test: IL-6-induced phospho-Stat3 in BMDMs; type: cell-based, mouse
Method: BMDMs were treated with indole or DMF control for 18 hours, then stimulated with IL-6 (10 ng/ml) for the given times. Cells were stained for phospho-Stat3 and analyzed by flow cytometry.
Similarly, the ex vivo indole conditioning of splenocytes was repeated with tissues from AhR-deficient and wild-type mice and analyzed TNF production. […] Importantly, in this set of experiments splenocytes were stimulated with LPS, heat-killed S. typhimurium, and CpG. […] Specifically, BMDMs were generated from WT or AhR-KO mice and treated with indole (1 mM) or DMF control for 18 hours. BMDMs were then stimulated with IL-6 (10 ng/ml) for the given times and stained for phospho-Stat3, which was detected by flow cytometry.

DCs = test: DC viability: lactate dehydrogenase release and propidium iodide uptake; details: versus solvent controls
naïve CD4+CD25− T cells = test: DC-T cell co-culture, polyclonal stimulation: Foxp3+ Treg induction; type: cell-based, mouse; details: naïve T cells co-cultured 72 hours with BMDCs conditioned with indole
Method: FIG. 15 is a set of FACS plots showing that indole-conditioned DCs preferentially induce Foxp3+ Tregs (polyclonal stimulation). Naïve wild-type CD4+CD25− T cells were sorted and co-cultured with indole- or DMF-conditioned BMDCs. Cells were cultured together for 72 hours in the presence of soluble α-CD3 (5 ug/ml) as well as TGF-β (2 ng/ml) with or without IL-2 (100 U/ml). Subsequently, cells were stained for the transcription factor Foxp3 and analyzed by flow cytometry. Shaded gray histograms represent unstained controls. Representative data from one of four experiments is shown.
To investigate whether indole-conditioned DCs preferentially induce Tregs, a co-culture system using FACS-sorted wild-type naïve CD4+CD25− T cells was employed. These naïve T cells were activated by antibodies against CD3 and CD28 in the presence of indole-conditioned BMDCs and cultured for 72 hours. Under this platform for polyclonal stimulation, a 2-fold increase in Treg induction in indole-DC cultures compared to controls was observed (FIG. 15). Additionally, the inventors pursued the same question in a more physiologically relevant model; i.e., under monoclonal T cell stimulation. […]

Stat3 [3] = test: IL-6-induced phospho-Stat3 in BMDCs, flow cytometry; type: cell-based, mouse
Method: Flow cytometric analysis was performed on BMDCs conditioned with indole from day 3 of culture and subsequently stimulated with IL-6 (10 ng/ml) for the given times. Cells were stained for phospho-Stat3 and analyzed by flow cytometry.
Flow cytometric analysis of BMDCs from WT or AhrKO mice cultured in the presence of indole or DMF from day 3. DCs were stimulated with IL-6 (10 ng/ml) for the given times and stained for phospho-Stat3, which was detected by flow cytometry. Stat3 signaling is shown as percent of phosphorylated cells (FIG. 10A), and MFI of the Stat3 positive population (FIGS. 10B and 10C). The specific Stat3 inhibitor, cucurbitacin I, was included as a negative control. Representative data is shown from one of four independent experiments.
BMDCs were conditioned with indole from day 3 and then induced Stat3 signaling by stimulation with IL-6 (FIGS. 6A and 6B). While Stat3 has both a tyrosine (Y705) and serine (S727) activation site, tyrosine phosphorylation is mediated by Janus kinases and required for Stat3 nuclear localization and subsequent DNA binding. Thus, the […] was queried for this study.

## c1ccc2[nH]ccc2c1 [Indole, indole]
CCR7; BMDCs, indole 1 mM from day 3, LPS for 24 hours
  CCR7 expression compared to controls: over 3 fold
CCR7; day 7 freshly harvested BMDCs, indole 1 mM from day 3
  increase in CCR7 expression over RA or solvent controls: approximately 5 fold
[1]
  diffusion across membranes: freely diffusible across membranes
Stat3 [2]; BMDMs from WT or AhR-KO mice, 1 mM indole 18 hours, IL-6 10 ng/ml
  reduction of Stat3 signaling: over 60%
Stat3 [2]; BMDMs, overnight indole, IL-6 stimulation
  reduction of number of macrophages undergoing Stat3 phosphorylation: 50%
DCs
  cytotoxicity in DCs: did not induce cytotoxicity
naïve CD4+CD25− T cells
  increase in Treg induction compared to controls: 2 fold
Stat3 [3]; BMDCs, 1 mM indole from day 3, IL-6 10 ng/ml, 15 minutes post-stimulation
  peak phosphorylation of Stat3 (percentage of DCs): 8%
Stat3 [3]; BMDCs, indole from day 3, IL-6 stimulation, throughout 60 minute timecourse
  suppression of phospho-Stat3 MFI: ≥ 2 fold
Stat3 [3]; indole-DCs generated from WT or AhR−/− bone marrow
  inhibition of Stat3 phospho-signaling, WT versus AhR−/−: nearly equivalent inhibition

Reference: patent US11612586B2, “Indole regulation of antigen presenting cells” (THE TEXAS A&M UNIVERSITY SYSTEM, priority 2016, dated 2023)
